From patent publication US5179088A, “1-Carba(dethia)cephalosporin antibiotics” (Eli Lilly and Company, priority 1990, dated 1993)

Tests used:
Format in all cases: cell-based
Parameters in all cases: unit not given here
Proteus morg = assay: in vitro antibacterial activity, agar dilution (Proteus morg)
Description: (§1) *minimum inhibitory concentrations were determined by the Agardilution

Proteus rett = assay: in vitro antibacterial activity, agar dilution (Proteus rett)
Description: as §1

Staphylococcus Epi = assay: in vitro antibacterial activity, agar dilution (Staphylococcus epi)
Description: as §1

Enterbacter Aerogenes = assay: in vitro antibacterial activity, agar dilution (Enterobacter aerogenes)
Description: as §1

Salmonella = assay: in vitro antibacterial activity, agar dilution (Salmonella)
Description: as §1

Streptococcus D = assay: in vitro antibacterial activity, agar dilution (Streptococcus D)
Description: as §1

Serratia = assay: in vitro antibacterial activity, agar dilution (Serratia)
Description: as §1

E. coli = assay: in vitro antibacterial activity, agar dilution (E. coli)
Description: as §1

Streptococcus A = assay: in vitro antibacterial activity, agar dilution (Streptococcus A)
Description: as §1

Enterbacter Cloacea = assay: in vitro antibacterial activity, agar dilution (Enterobacter cloacae)
Description: as §1

Acin = assay: in vitro antibacterial activity, agar dilution (Acin)
Description: as §1

Proteus incon = assay: in vitro antibacterial activity, agar dilution (Proteus incon)
Description: as §1

H. Influ. = assay: in vitro antibacterial activity, agar dilution (H. influ.)
Description: as §1

Klebsiella = assay: in vitro antibacterial activity, agar dilution (Klebsiella)
Description: as §1

Citro = assay: in vitro antibacterial activity, agar dilution (Citro)
Description: as §1

Pseudomonas = assay: in vitro antibacterial activity, agar dilution (Pseudomonas)
Description: as §1

Streptococcus pn = assay: in vitro antibacterial activity, agar dilution (Streptococcus pn); details: strain PARK
Description: as §1

Staphylococcus Aureus = assay: in vitro antibacterial activity, agar dilution (Staphylococcus aureus)
Description: as §1

Shig. sonn = assay: in vitro antibacterial activity, agar dilution (Shig. sonn); details: strain N9
Description: as §1

## Nc1nc(C2=C(C(=O)O)N3C(=O)[C@@H](NC(=O)[C@H](N)c4ccccc4)[C@H]3CC2)cs1 [Example 41, 7β-(D-phenylglycylamino)-1-carba-(1-dethia)-3-(2-aminothiazol-4-yl)-3-cephem-4-carboxylic acid]
Proteus morg; strain PR15
  minimum inhibitory concentration: 128
Proteus rett; strain C24
  minimum inhibitory concentration: > 128
Staphylococcus Epi; strain 222
  minimum inhibitory concentration: 16
Staphylococcus Epi; strain 270
  minimum inhibitory concentration: 32
Enterbacter Aerogenes; strain C32
  minimum inhibitory concentration: 128
Enterbacter Aerogenes; strain EB17
  minimum inhibitory concentration: 128
Salmonella; strain 1335
  minimum inhibitory concentration: 128
Salmonella; strain X514
  minimum inhibitory concentration: 128
Streptococcus D; strain 2041
  minimum inhibitory concentration: > 128
Streptococcus D; strain X66
  minimum inhibitory concentration: > 128
Serratia; strain SE3
  minimum inhibitory concentration: 128
Serratia; strain X99
  minimum inhibitory concentration: 128
E. coli; strain EC14
  minimum inhibitory concentration: 64
E. coli; strain N10
  minimum inhibitory concentration: 128
E. coli; strain TEM
  minimum inhibitory concentration: 64
Streptococcus A; strain C203
  minimum inhibitory concentration: 2
Enterbacter Cloacea; strain 265A
  minimum inhibitory concentration: > 128
Enterbacter Cloacea; strain EB5
  minimum inhibitory concentration: 128
Acin; strain AC12
  minimum inhibitory concentration: > 128
Proteus incon; strain PR33
  minimum inhibitory concentration: 128
H. Influ.; res, strain 76
  minimum inhibitory concentration: 32
H. Influ.; sens, strain C.L.
  minimum inhibitory concentration: 64
Klebsiella; strain KAE
  minimum inhibitory concentration: 128
Klebsiella; strain X26
  minimum inhibitory concentration: 16
Klebsiella; strain X68
  minimum inhibitory concentration: 128
Citro; strain CF17
  minimum inhibitory concentration: > 128
Pseudomonas; strain PS18
  minimum inhibitory concentration: > 128
Pseudomonas; strain PS72
  minimum inhibitory concentration: > 128
Pseudomonas; strain X239
  minimum inhibitory concentration: > 128
Pseudomonas; strain X528
  minimum inhibitory concentration: > 128
Streptococcus pn
  minimum inhibitory concentration: 2
Staphylococcus Aureus; strain S13E
  minimum inhibitory concentration: 64
Staphylococcus Aureus; strain V41
  minimum inhibitory concentration: 32
Staphylococcus Aureus; strain X1.1
  minimum inhibitory concentration: 4
Staphylococcus Aureus; strain X400
  minimum inhibitory concentration: > 128

## CO/N=C(\C(=O)N[C@@H]1C(=O)N2C(C(=O)O)=C(c3csc(-c4ccc([N+](=O)[O-])cc4)n3)CC[C@H]12)c1csc(N)n1 [Example 35, Sodium 7β-[(2-aminothiazol-4-yl)-Z-methoximinoacetylamino]-1-carba-(1-dethia)-3-[2-(4-nitrophenyl)thiazol-4-yl]-3-cephem-4-carboxylate]
Proteus morg; strain PR15
  minimum inhibitory concentration: .5
Proteus rett; strain C24
  minimum inhibitory concentration: .25
Staphylococcus Epi; strain 222
  minimum inhibitory concentration: 2
Staphylococcus Epi; strain 270
  minimum inhibitory concentration: 4
Enterbacter Aerogenes; strain C32
  minimum inhibitory concentration: .5
Enterbacter Aerogenes; strain EB17
  minimum inhibitory concentration: 1
Salmonella; strain 1335
  minimum inhibitory concentration: 4
Salmonella; strain X514
  minimum inhibitory concentration: 1
Streptococcus D; strain 2041
  minimum inhibitory concentration: 4
Streptococcus D; strain X66
  minimum inhibitory concentration: > 128
Serratia; strain SE3
  minimum inhibitory concentration: 4
Serratia; strain X99
  minimum inhibitory concentration: 4
E. coli; strain EC14
  minimum inhibitory concentration: .5
E. coli; strain N10
  minimum inhibitory concentration: 1
E. coli; strain TEM
  minimum inhibitory concentration: .5
Streptococcus A; strain C203
  minimum inhibitory concentration: < .008
Enterbacter Cloacea; strain 265A
  minimum inhibitory concentration: 16
Enterbacter Cloacea; strain EB5
  minimum inhibitory concentration: 1
Acin; strain AC12
  minimum inhibitory concentration: 64
Proteus incon; strain PR33
  minimum inhibitory concentration: .25
H. Influ.; res, strain 76
  minimum inhibitory concentration: .015
H. Influ.; sens, strain C.L.
  minimum inhibitory concentration: .03
Shig. sonn
  minimum inhibitory concentration: .5
Klebsiella; strain KAE
  minimum inhibitory concentration: .5
Klebsiella; strain X26
  minimum inhibitory concentration: < .008
Klebsiella; strain X68
  minimum inhibitory concentration: 1
Citro; strain CF17
  minimum inhibitory concentration: 2
Streptococcus pn
  minimum inhibitory concentration: < .008
Staphylococcus Aureus; strain S13E
  minimum inhibitory concentration: 32
Staphylococcus Aureus; strain V41
  minimum inhibitory concentration: 2
Staphylococcus Aureus; strain X1.1
  minimum inhibitory concentration: .5
Staphylococcus Aureus; strain X400
  minimum inhibitory concentration: > 128

## CO/N=C(\C(=O)N[C@@H]1C(=O)N2C(C(=O)O)=C(c3csc(-c4ccc(O)c(O)c4)n3)CC[C@H]12)c1csc(N)n1 [Example 40, Sodium 7β-[(2-aminothiazol-4-yl)-Z-methoximinoacetylamino]-1-carba-(1-dethia)-3-2-(3,4-dihydroxyphenyl)thiazol-4-yl-3-cephem-4-carboxylate]
Proteus morg; strain PR15
  minimum inhibitory concentration: 4
Proteus morg; strain PR15, retest
  minimum inhibitory concentration: 4
Proteus rett; strain C24
  minimum inhibitory concentration: .125
Proteus rett; strain C24, retest
  minimum inhibitory concentration: .25
Staphylococcus Epi; strain 222
  minimum inhibitory concentration: 16
Staphylococcus Epi; strain 222, retest
  minimum inhibitory concentration: 16
Staphylococcus Epi; strain 270
  minimum inhibitory concentration: 32
Staphylococcus Epi; strain 270, retest
  minimum inhibitory concentration: 16
Enterbacter Aerogenes; strain C32
  minimum inhibitory concentration: .5
Enterbacter Aerogenes; strain C32, retest
  minimum inhibitory concentration: .5
Enterbacter Aerogenes; strain EB17
  minimum inhibitory concentration: .03
Enterbacter Aerogenes; strain EB17, retest
  minimum inhibitory concentration: .06
Salmonella; strain 1335
  minimum inhibitory concentration: .06
Salmonella; strain 1335, retest
  minimum inhibitory concentration: .06
Salmonella; strain X514
  minimum inhibitory concentration: .03
Salmonella; strain X514, retest
  minimum inhibitory concentration: .03
Streptococcus D; strain 2041
  minimum inhibitory concentration: 16
Streptococcus D; strain 2041, retest
  minimum inhibitory concentration: 16
Streptococcus D; strain X66
  minimum inhibitory concentration: > 128
Streptococcus D; strain X66, retest
  minimum inhibitory concentration: > 128
Serratia; strain SE3
  minimum inhibitory concentration: 1
Serratia; strain SE3, retest
  minimum inhibitory concentration: 2
Serratia; strain X99
  minimum inhibitory concentration: .25
Serratia; strain X99, retest
  minimum inhibitory concentration: .125
E. coli; strain EC14
  minimum inhibitory concentration: .06
E. coli; strain EC14, retest
  minimum inhibitory concentration: .06
E. coli; strain N10
  minimum inhibitory concentration: .125
E. coli; strain N10, retest
  minimum inhibitory concentration: .125
E. coli; strain TEM
  minimum inhibitory concentration: .06
E. coli; strain TEM, retest
  minimum inhibitory concentration: .03
Streptococcus A; strain C203
  minimum inhibitory concentration: .06
Streptococcus A; strain C203, retest
  minimum inhibitory concentration: .125
Enterbacter Cloacea; strain 265A
  minimum inhibitory concentration: 64
Enterbacter Cloacea; strain 265A, retest
  minimum inhibitory concentration: 32
Enterbacter Cloacea; strain EB5
  minimum inhibitory concentration: .25
Enterbacter Cloacea; strain EB5, retest
  minimum inhibitory concentration: .25
Acin; strain AC12
  minimum inhibitory concentration: 4
Acin; strain AC12, retest
  minimum inhibitory concentration: 2
Proteus incon; strain PR33
  minimum inhibitory concentration: .125
Proteus incon; strain PR33, retest
  minimum inhibitory concentration: .25
H. Influ.; res, strain 76
  minimum inhibitory concentration: .015
H. Influ.; res, strain 76, retest
  minimum inhibitory concentration: .03
H. Influ.; sens, strain C.L.
  minimum inhibitory concentration: .125
H. Influ.; sens, strain C.L., retest
  minimum inhibitory concentration: .125
Klebsiella; strain KAE
  minimum inhibitory concentration: 8
Klebsiella; strain KAE, retest
  minimum inhibitory concentration: 4
Klebsiella; strain X26
  minimum inhibitory concentration: .015
Klebsiella; strain X26, retest
  minimum inhibitory concentration: .03
Klebsiella; strain X68
  minimum inhibitory concentration: .06
Klebsiella; strain X68, retest
  minimum inhibitory concentration: .06
Citro; strain CF17
  minimum inhibitory concentration: 4
Citro; strain CF17, retest
  minimum inhibitory concentration: 4
Pseudomonas; strain PS18
  minimum inhibitory concentration: 64
Pseudomonas; strain PS18, retest
  minimum inhibitory concentration: 64
Pseudomonas; strain PS72, retest
  minimum inhibitory concentration: 128
Pseudomonas; strain X239, retest
  minimum inhibitory concentration: 128
Pseudomonas; strain X528
  minimum inhibitory concentration: 8
Pseudomonas; strain X528, retest
  minimum inhibitory concentration: 16
Streptococcus pn
  minimum inhibitory concentration: .125
Streptococcus pn; retest
  minimum inhibitory concentration: .125
Staphylococcus Aureus; strain S13E
  minimum inhibitory concentration: 64
Staphylococcus Aureus; strain S13E, retest
  minimum inhibitory concentration: 64
Staphylococcus Aureus; strain V41
  minimum inhibitory concentration: 16
Staphylococcus Aureus; strain V41, retest
  minimum inhibitory concentration: 8
Staphylococcus Aureus; strain X1.1
  minimum inhibitory concentration: 8
Staphylococcus Aureus; strain X1.1, retest
  minimum inhibitory concentration: 8
Staphylococcus Aureus; strain X400
  minimum inhibitory concentration: > 128
Staphylococcus Aureus; strain X400, retest
  minimum inhibitory concentration: > 128
